The term melting point denotes the temperature, or range, at which the solid turns liquid. By inhibition is commonly meant the drop in the measured response relative to a control, in per cent.

One data set deals with T1, Panx-1 channels (Mus musculus, UniProt Q9JIP4).
T1 construct: expressed in transfected cells; host or cells: Xenopus laevis oocytes injected with in vitro-transcribed mRNA
Briefly: Voltage clamp on Xenopus laevis oocytes expressing Panx-1 channels. In kind it is cell-based. Conditions: for inhibition at 50 µM / I (%) inhibition of Panx-1 currents: voltage clamp, Xenopus laevis oocytes expressing Panx-1 channels, 50 µM; for inhibition at 50 µM: read-out: I (%) inhibition of Panx-1 currents; for classification as active or inactive Panx-1 blocker: grouping chosen for the virtual screening. As to the method:
All new products were screened as Panx-1 blockers at the dose of 50 µM using the Voltage Clamp technique on Xenopus Laevis oocytes expressing Panx-1 channels. The membrane potential of the cells was held at -60 mV and voltage steps to +60 mV were applied to induce membrane currents. To verify that Panx-1 channels carried the currents, in each experiment 100 µM carbenoxolone (CBX) was applied. At this concentration, CBX is known to yield 100% inhibition of Panx-1 activity. If present, leak currents resistant to CBX were subtracted from the total current to assess % inhibition mediated by the tested compounds. Table 1 and Table 2 report the electrophysiological results of naphthalene-2-sulphonic acid derivatives bearing at position 5 an amino- (3a–e, 4 and 5) or amide group (7a–g, 8 and 9) and of compound 13.
Oocytes of Xenopus laevis are prepared as previously described in [39] where the oocytes are isolated from surgically removed ovary segments incubated in an Oocyte Ringe solution Ca2-free (OR2: in mM: 82.5 NaCl, 2.5 KCl, 1.0 MgCl2, […], 1.0 Na2HPO4 e 5.0 HEPES, pH 7.5) with 2 mg/mL of collagenase and antibiotics (10,000 U/mL penicillin and 10 mg/mL of streptomycin) stirred at room temperature for 3 h. After being washed with OR2, oocytes free of follicular cells and that have a uniform pigmentation are chosen and stored in OR2 for 18 °C.
Mouse pannexin1, in pCS2, was linearised with NotI. In vitro transcription was performed with the polymerase SP6, using the Message Machine kit (Ambion). mRNA was quantified by absorbance (260 nm), and the proportion of full-length transcripts was checked by agarose gel electrophoresis. In vitro-transcribed mRNA (~20 nL) was injected into Xenopus laevis oocytes.
Whole-cell membrane currents of oocytes were measured using a two-electrode voltage clamp (Gene Clamp 500B, Axon Instruments/Molecular Devices Sunnyvale, Union City, CA, USA). Glass pipettes were pulled using a P-97 Flaming/Brown type puller (Sutter, Novato, CA, USA). The recording chamber was perfused continuously with frog Ringer (OR) solution (in mM: 82.5 NaCl, 2.5 KCl, 1 CaCl2, 1 MgCl2, 1 Na2HPO4, and 5 HEPES, pH 7.5).
Membrane conductance was determined using voltage pulses, and the pulse-induced current amplitudes were divided by the amplitudes of the voltage steps. For calculation of % inhibition, leak currents were subtracted. Typically, leak currents after the interventions were smaller than at the beginning of the experiment and this smaller value was used for the subtraction to avoid overestimation of the inhibitory effect. For an independent measure of the leak current, oocytes at the end of the experiment were exposed to 100 µM carbenoxolone, which is known to close Panx1 channels 100%. Oocytes expressing Panx1 were held at −60 mV, and pulses to +60 mV were applied to transiently open the channels by means of the voltage gate. Pulses 5 s in duration were applied at 0.1 Hz for current and conductance measurements.

Structures are written as SMILES.

T1 sequence (Q9JIP4 whole entry): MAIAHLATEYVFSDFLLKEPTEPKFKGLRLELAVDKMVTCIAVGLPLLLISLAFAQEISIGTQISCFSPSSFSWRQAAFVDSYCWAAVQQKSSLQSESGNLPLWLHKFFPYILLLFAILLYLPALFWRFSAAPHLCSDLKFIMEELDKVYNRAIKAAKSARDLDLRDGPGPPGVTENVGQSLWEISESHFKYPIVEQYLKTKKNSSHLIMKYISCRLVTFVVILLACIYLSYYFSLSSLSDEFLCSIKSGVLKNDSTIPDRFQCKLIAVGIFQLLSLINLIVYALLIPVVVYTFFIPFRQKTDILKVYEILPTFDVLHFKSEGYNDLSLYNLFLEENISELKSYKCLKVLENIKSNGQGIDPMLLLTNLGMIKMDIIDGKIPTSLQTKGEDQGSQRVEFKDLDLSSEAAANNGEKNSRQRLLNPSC

As to `O=S(=O)(O)c1ccc2c(NCc3ccccc3)cccc2c1` (hydrate or solvate) [Compound 3a, 5-(Benzylamino)naphthalene-2-Sulfonic Acid], the melting point is above 300 °C. Consider `O=S(=O)(O)c1ccc2c(NCCc3ccccc3)cccc2c1` (hydrate or solvate) [Compound 3b, 5-(Phenethylamino)naphthalene-2-sulfonic acid], for which the melting point was above 300 °C. `O=S(=O)(O)c1ccc2c(NCCCc3ccccc3)cccc2c1` (hydrate or solvate) [Compound 3c, 5-[(3-Phenylpropyl)amino]naphthalene-2-sulfonic acid] registered a melting point above 300 °C. `O=S(=O)(O)c1ccc2c(NCCCCc3ccccc3)cccc2c1` (hydrate or solvate) [Compound 3d, 5-[(4-Phenylbutyl)amino]naphthalene-2-sulfonic acid] registered a melting point above 300 °C. On the same count and under the same terms, the value for `O=S(=O)(O)c1ccc2c(NCCCCCc3ccccc3)cccc2c1` (hydrate or solvate) [Compound 3e, 5-[(5-Phenylpentyl)amino]naphthalene-2-sulfonic acid] was above 300 °C. Consider `O=C(O)c1ccc(CNc2cccc3cc(S(=O)(=O)O)ccc23)cc1` (hydrate or solvate) [Compound 4, 4-[(6-Sulfonaphthalen-1-yl)aminomethyl]benzoic Acid], for which the melting point was above 300 °C. The compound `CN(Cc1ccccc1)c1cccc2cc(S(=O)(=O)O)ccc12` (hydrate or solvate) [Compound 5, 5-(Benzyl(methyl)amino)naphthalene-2-sulfonic Acid] returned a melting point above 300 °C. The compound `CCN(CC)S(=O)(=O)c1ccc(C(=O)Nc2cccc3cc(S(=O)(=O)O)ccc23)cc1` (hydrate or solvate) [Compound 7a, 5-[4-(N,N-diethylsulfamoyl)benzamido]naphthalene-2-sulfonic acid] yielded a melting point above 300 °C.

Compound `CCCN(CCC)S(=O)(=O)c1ccc(C(=O)Nc2cccc3cc(S(=O)(=O)O)ccc23)cc1` (hydrate or solvate) [Compound 7b, 5-[4-(N,N-dipropylsulfamoyl)benzamido]naphthalene-2-sulfonic acid] displayed a melting point above 300 °C. Regarding `CCCCN(CCCC)S(=O)(=O)c1ccc(C(=O)Nc2cccc3cc(S(=O)(=O)O)ccc23)cc1` (hydrate or solvate) [Compound 7c, 5-[4-(N,N-dibutylsulfamoyl)benzamido]naphthalene-2-sulfonic acid], the melting point is above 300 °C. For `O=C(Nc1cccc2cc(S(=O)(=O)O)ccc12)c1ccc(S(=O)(=O)N(Cc2ccccc2)Cc2ccccc2)cc1` (hydrate or solvate) [Compound 7d, 5-[4-(N,N-dibenzylsulfamoyl)benzamido]naphthalene-2-sulfonic acid], the melting point is above 300 °C.

`O=C(Nc1cccc2cc(S(=O)(=O)O)ccc12)c1ccc(S(=O)(=O)N(CCc2ccccc2)CCc2ccccc2)cc1` (hydrate or solvate) [Compound 7e, 5-[4-(N,N-diphenethylsulfamoyl)benzamido]naphthalene-2-sulfonic acid] yielded a melting point above 300 °C.

Compound `O=C(Nc1cccc2cc(S(=O)(=O)O)ccc12)c1ccc(S(=O)(=O)N(CCc2ccccc2)Cc2ccccc2)cc1` (hydrate or solvate) [Compound 7f, 5-[4-(N-benzyl-N-phenethylsulfamoyl)benzamido]naphthalene-2-sulfonic acid] returned a melting point above 300 °C. Still for that read-out and setting: the value for `O=C(Nc1cccc2cc(S(=O)(=O)O)ccc12)c1ccc(S(=O)(=O)NCCc2ccccc2)cc1` (hydrate or solvate) [Compound 7g, 5-[4-(N-phenethylsulfamoyl)benzamido]naphthalene-2-sulfonic acid] was above 300 °C; that for `O=C(O)c1ccc(CN(Cc2ccc(C(=O)O)cc2)S(=O)(=O)c2ccc(C(=O)O)cc2)cc1` (hydrate or solvate) [Compound 13, 4,4′-{{[(4-Carboxyphenyl)sulfonyl]azanediyl}bis(methylene)}dibenzoic acid] was above 300 °C.

Consider `O=S(=O)(O)c1ccc2c(NCc3ccccc3)cccc2c1` [Compound 3a, 5-(Benzylamino)naphthalene-2-Sulfonic Acid], for which, on Panx-1 channels, the inhibition at 50 µM turned out to be 31.7 ± 0.9% and the “classification as active or inactive Panx-1 blocker” value (“classification” for short) was “inactive”. `O=S(=O)(O)c1ccc2c(NCCc3ccccc3)cccc2c1` [Compound 3b, 5-(Phenethylamino)naphthalene-2-sulfonic acid]: the inhibition at 50 µM at Panx-1 channels is 24.3 ± 3.5%. With `O=S(=O)(O)c1ccc2c(NCCCCc3ccccc3)cccc2c1` [Compound 3d, 5-[(4-Phenylbutyl)amino]naphthalene-2-sulfonic acid], the inhibition at 50 µM on Panx-1 channels was 47 ± 5.7%.

For the compound `O=S(=O)(O)c1ccc2c(NCCCCCc3ccccc3)cccc2c1` [Compound 3e, 5-[(5-Phenylpentyl)amino]naphthalene-2-sulfonic acid], at Panx-1 channels, the inhibition at 50 µM amounted to 62 ± 6%. Regarding `COC(=O)c1ccc(CNc2cccc3cc(S(=O)(=O)O)ccc23)cc1` [Compound 3f, 5-[(4-(Methoxycarbonyl)benzyl)amino]naphthalene-2-sulfonic acid], the melting point is above 300 °C. Regarding `CN(Cc1ccccc1)c1cccc2cc(S(=O)(=O)O)ccc12` [Compound 5, 5-(Benzyl(methyl)amino)naphthalene-2-sulfonic Acid], at Panx-1 channels, the inhibition at 50 µM stood at 27.3 ± 2.6%. On the same count and under the same terms, under `CCN(CC)S(=O)(=O)c1ccc(C(=O)Nc2cccc3cc(S(=O)(=O)O)ccc23)cc1` [Compound 7a, 5-[4-(N,N-diethylsulfamoyl)benzamido]naphthalene-2-sulfonic acid] stands 54 ± 2.3%.

For the compound `CCCN(CCC)S(=O)(=O)c1ccc(C(=O)Nc2cccc3cc(S(=O)(=O)O)ccc23)cc1` [Compound 7b, 5-[4-(N,N-dipropylsulfamoyl)benzamido]naphthalene-2-sulfonic acid], at Panx-1 channels, the “I (%) inhibition of Panx-1 currents” value is on record as 34.3 ± 5.2% and the inhibition at 50 µM came to 34%. For the compound `O=C(Nc1cccc2cc(S(=O)(=O)O)ccc12)c1ccc(S(=O)(=O)N(CCc2ccccc2)CCc2ccccc2)cc1` [Compound 7e, 5-[4-(N,N-diphenethylsulfamoyl)benzamido]naphthalene-2-sulfonic acid], the inhibition at 50 µM at Panx-1 channels was determined as 58.3 ± 7.5%. Take `O=C(Nc1cccc2cc(S(=O)(=O)O)ccc12)c1ccc(S(=O)(=O)N(CCc2ccccc2)Cc2ccccc2)cc1` [Compound 7f, 5-[4-(N-benzyl-N-phenethylsulfamoyl)benzamido]naphthalene-2-sulfonic acid]: the inhibition at 50 µM on Panx-1 channels stood at 61.3 ± 4.3%. Take `O=C(Nc1cccc2cc(S(=O)(=O)O)ccc12)c1ccc(S(=O)(=O)NCCc2ccccc2)cc1` [Compound 7g, 5-[4-(N-phenethylsulfamoyl)benzamido]naphthalene-2-sulfonic acid]: at Panx-1 channels, the inhibition at 50 µM is 47.3 ± 6.5% and the “classification” value is “inactive”. In the case of `O=C(Nc1cccc2cc(S(=O)(=O)O)ccc12)c1ccccc1` [Compound 8, 5-Benzamidonaphthalene-2-sulfonic Acid], on Panx-1 channels, the “I (%) inhibition of Panx-1 currents” value worked out at 15.3 ± 4.9%, the inhibition at 50 µM came to 15% and the “classification” value is “inactive”. For `CCCCN(CCCC)S(=O)(=O)c1ccc(C(=O)Nc2cccc3cc(S(=O)(=O)[O-])ccc23)cc1.[Na+]` [Compound 9, Sodium 5-[4-(N,N-dibutylsulfamoyl)benzamido]naphthalene-2-sulfonate], the “I (%) inhibition of Panx-1 currents” value on Panx-1 channels worked out at 65.3 ± 3.9%. `Nc1c(C(=O)O)cnn1-c1ccc(S(N)(=O)=O)cc1` [Compound 17, 5-Amino-1-(4-sulfamoylphenyl)-1H-pyrazole-4-carboxylic acid]: the melting point fell in the range of 210 to 211 °C. In addition, at Panx-1 channels, the inhibition at 50 µM worked out at 0%. Consider `CCNS(=O)(=O)c1ccc(-n2ncc(C(=O)O)c2N)cc1` [Compound 18a, 5-Amino-1-(4-(N-ethylsulfamoyl)phenyl)-1H-pyrazole-4-carboxylic acid], for which the melting point is 208 to 210 °C (dec.). Moreover, on Panx-1 channels, the inhibition at 50 µM turned out to be 0%.

The values are drawn from paper PMC9103715, “New Panx-1 Blockers: Synthesis, Biological Evaluation and Molecular Dynamic Studies” (International Journal of Molecular Sciences, 2022).
